Results published in patent US4594357A, “Depot antiinflammatory agents” (Troponwerke GmbH & Co., priority 1983, dated 1986).

What was measured:
[1] = test system: oedema of the rat paw induced by carrageenan; experiment: carrageenan-induced rat paw oedema (oedema inhibition); type: in vivo, rat (male, strain Bor: WISW (SPF-Cpb)); conditions: for % Inhibition after depot acid: i.m. 15 mg/kg as an oily solution; for Oedema inhibition: rat
Description: The oedema-inhibiting and analgesic action of the test substances following intramuscular administration of an appropriate depot formulation was determined with the aid of oedema of the rat paw induced by carrageenan or by means of the Randall-Selitto test [Arch. int. Pharmacodyn. 111, 409 (1957)].
The experiments were carried out on male rats [strain: Bor: WISW (SPF-Cpb), weight about 200 g]. A depot product was administered once intramuscularly to the animals and the antiinflammatory action on the following days was tested by inducing carrageenan oedema. In each case three groups or 5 animals each were investigated per day, the first group consisting of 5 untreated animals, the 2nd group of 5 animals treated only with solvent (for example viscoleo) and the 3rd group of 5 animals treated with depot product (for example 2-(2-hydroxyethoxy)-ethyl-N(α,α,α-trifluoro-m-tolyl)anthranilate (formula 11) in viscoleo).
The paw volumes were measured by the method of F. Kemper and G. Ameln [Z. ges. exp. Med. 131, 407 (1959)], the difference between the paw volumes 5 hours after oedema provocation and the normal paw volume giving the oedema volume. The analgesic action was determined via pressure pain [Randall-Selitto, see above].
The inhibition of the carrageenan oedema following intramuscular administration of 2-(2-hydroxyethoxy)-ethyl N-(α,α,α-trifluoro-m-tolyl)-anthranilate (formula 11) in viscoleo after various doses in a constant administration volume of 0.03 ml (rat) is as follows: […]

[2] = half-life for elimination from the tissue (site of administration); type: in vivo; conditions: tissue at administration site, im; rat, i.m. administration in oily solution; read-out: HL for elimination from the tissue (site of administration) (converted)
Description: (§1) It was possible to determine the biological half-life (HL) of the compound 11 in rats from the inflamed tissue by means of gas chromatography [H.-D. Dell, J. Fielder, H. Jacobi and J. Kolle, Arzneim.-Forsch./Drug.Res 31, 17-21 (1981)]. The HL from the tissue is about 8.5 hours. In contrast, an HL of 1.29 days is determined for elimination from the tissue (site of administration) following intramuscular administration of 11 in oily solution.

[3] = biological half-life from the inflamed tissue by gas chromatography; type: in vivo; conditions: rat, read-out: biological half-life (HL) from the inflamed tissue (converted)
Description: as §1

[4] = test system: oedema of the rat paw induced by carrageenan; conditions: carrageenan model, cited from earlier work

With O=C(O)c1cccnc1Nc1cccc(C(F)(F)F)c1 [formula 6, 2-(α,α,α-Trifluoro-m-toluidino)-nicotinic acid] the “% Inhibition after depot acid” value ([1]; 1 day after injection) was 57.0%, the “% Inhibition after depot acid” value ([1]; 2 days after injection) was 35.2% and the “% Inhibition after depot acid” value ([1]; 3 days after injection) was 35.5%. The “% Inhibition after depot acid” value ([1]; 4 days after injection) was 11.5%.

For O=C(O)c1ccccc1Nc1cccc(C(F)(F)F)c1 [formula 1, N--(α,α,α-Trifluoro-m-tolyl)-anthranilic acid], the “% Inhibition after depot acid” value ([1]; 1 day after injection) was 53.8%, the “% Inhibition after depot acid” value ([1]; 2 days after injection) was 46.5% and the “% Inhibition after depot acid” value ([1]; 3 days after injection) was 34.3%. For the same compound, the “% Inhibition after depot acid” value ([1]; 4 days after injection) was 37.1% and the “% Inhibition after depot acid” value ([1]; 5 days after injection) was 26.8%.

CCCCOC(=O)c1ccccc1Nc1cccc(C(F)(F)F)c1 [formula 13, butyl N-(α,α,α-trifluoro-m-tolyl)-anthranilate] gave an Oedema inhibition ([1]; formula 13 in viscoleo, single i.m. 15 mg/kg, 1 day after administration) of 53.8%, an Oedema inhibition ([1]; formula 13 in viscoleo, single i.m. 15 mg/kg, 2 days after administration) of 46.5% and an Oedema inhibition ([1]; formula 13 in viscoleo, single i.m. 15 mg/kg, 3 days after administration) of 34.3%. It also gave an Oedema inhibition ([1]; formula 13 in viscoleo, single i.m. 15 mg/kg, 4 days after administration) of 37.1% and an Oedema inhibition ([1]; formula 13 in viscoleo, single i.m. 15 mg/kg, 5 days after administration) of 28.8%.

Work on O=C(OCCOCCO)c1ccccc1Nc1cccc(C(F)(F)F)c1 [formula 11, 2-(2-hydroxyethoxy)-ethyl N-(α,α,α-trifluoro-m-tolyl)-anthranilate] yielded an Oedema inhibition ([1]; 10.5 mg/kg, single i.m., in viscoleo, 1 day after injection) of 64.0%, an Oedema inhibition ([1]; 10.5 mg/kg, single i.m., in viscoleo, 2 days after injection) of 61.1% and an Oedema inhibition ([1]; 10.5 mg/kg, single i.m., in viscoleo, 3 days after injection) of 36.6%. It also gave an Oedema inhibition ([1]; 10.5 mg/kg, single i.m., in viscoleo, 4 days after injection) of 41.6%, an Oedema inhibition ([1]; 15 mg/kg, single i.m., in viscoleo, 1 day after injection) of 77.6% and an Oedema inhibition ([1]; 15 mg/kg, single i.m., in viscoleo, 2 days after injection) of 72.2%. For the same compound, the Oedema inhibition ([1]; 15 mg/kg, single i.m., in viscoleo, 3 days after injection) was 55.5%, the Oedema inhibition ([1]; 15 mg/kg, single i.m., in viscoleo, 4 days after injection) was 51.3% and the Oedema inhibition ([1]; 19.5 mg/kg, single i.m., in viscoleo, 1 day after injection) was 77.6%. The Oedema inhibition ([1]; 19.5 mg/kg, single i.m., in viscoleo, 2 days after injection) was 81.3%, the Oedema inhibition ([1]; 19.5 mg/kg, single i.m., in viscoleo, 3 days after injection) was 61.6% and the Oedema inhibition ([1]; 19.5 mg/kg, single i.m., in viscoleo, 4 days after injection) was 52.1%. The half-life [2] was 31 h, the half-life [3] was roughly 8.5 h and the “duration of oedema inhibition after peroral administration” value ([4]; about 24 hours) was “corresponds to the control value after about 24 hours”. The “oedema inhibition after peroral administration” value [4] was “powerful oedema inhibition”.
